Results taken from PMC9783573, “Introduction of a SiFA Moiety into the D-Glutamate Chain of DOTA-PP-F11N Results in Radiohybrid-Based CCK-2R-Targeted Compounds with Improved Pharmacokinetics In Vivo” (Pharmaceuticals, 2022).
Where two headings read alike, the source gives them in different places. Non-standard residues stand in square brackets, D forms with d. Residues, ends and D or L forms follow the SMILES beside them. *: point of attachment. X1 = O=C(O)CN1CCN(CC(=O)O)CCN([C@H](CCC(=O)*)C(=O)O)CCN(CC(=O)O)CC1; Benzoyl(4-SiFtBu2) = CC(C)(C)[Si](F)(c1ccc(C(=O)*)cc1)C(C)(C)C; Nle = CCCC[C@H](N)C(=O)O; dDap = NC[C@@H](N)C(=O)O

How the values were obtained:
CCK-2R = target: T1, CCK-2R (Rattus norvegicus, UniProt P30553); assay: CCK-2R-mediated internalisation and total cell uptake on AR42J cells; format: cell-based; conditions: for Total cell uptake (%) / Internalisation Values (%): % of applied activity, AR42J cells, 37 °C, 0.25 pmol/well; for Internalisation Values (%): corrected for non-specific binding; for Internalisation Values (% of reference): % of the reference [177Lu]Lu-DOTA-PP-F11N
T1 construct: CCK-2R expressing rat pancreatic cancer cells AR42J (CLS GmbH, Eppelheim,; host or cells: AR42J rat pancreatic cancer cells
T1 sequence (P30553 1-452): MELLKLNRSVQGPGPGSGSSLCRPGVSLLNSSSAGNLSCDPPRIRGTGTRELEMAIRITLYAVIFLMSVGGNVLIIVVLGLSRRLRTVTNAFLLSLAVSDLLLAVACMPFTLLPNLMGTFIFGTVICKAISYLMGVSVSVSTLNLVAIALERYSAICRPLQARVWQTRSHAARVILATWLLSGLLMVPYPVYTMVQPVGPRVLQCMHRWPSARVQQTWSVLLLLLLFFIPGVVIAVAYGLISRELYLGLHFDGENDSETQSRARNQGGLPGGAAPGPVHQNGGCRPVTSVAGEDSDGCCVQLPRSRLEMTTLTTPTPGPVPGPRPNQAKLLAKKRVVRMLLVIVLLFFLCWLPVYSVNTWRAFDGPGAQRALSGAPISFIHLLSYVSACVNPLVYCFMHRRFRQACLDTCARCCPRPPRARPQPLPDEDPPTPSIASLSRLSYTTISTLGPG
Procedure: Figure 3 (a) CCK-2R-mediated internalisation ([…]) on AR42J cells as percent (%) of the applied activity (incubation at 37 °C for 1, 2, 4 and 6 h, RPMI 1640, 5 mM L-Gln, 5 mL non-essential amino acids (100×), 10% FCS + 5% BSA (v/v), 3.0 × 10^5 cells/mL/well). (b) CCK-2R mediated internalisation (% of the reference [^177Lu]Lu-DOTA-PP-F11N) of [^177Lu]Lu-CP04 (grey), [^177Lu]Lu-(R)-DOTAGA-rhCCK-9 (red) and [^177Lu]Lu-(R)-DOTAGA-rhCCK-16 (green) after incubation for 6 h.
Internalisation studies of the ^177Lu-labelled conjugates (0.3 pmol) were performed on AR42J cells (3.0 × 10^5 cells per 1 mL/well) at 37 °C for 1, 2, 4 and 6 h (n = 3). Data were corrected for non-specific binding (competition by 10^−4 M [^natLu]Lu-DOTA-PP-F11N).
Cell Culture. CCK-2R expressing rat pancreatic cancer cells AR42J (CLS GmbH, Eppelheim, Germany) were cultivated in monolayers in CELLSTAR ® cell culture flasks acquired from Greiner Bio-One GmbH (Frickenhausen, Germany) at 37 °C in a humidified atmosphere (5% CO2) using a HERAcell 150i-Incubator (Thermo Fisher Scientific Inc., Waltham, United States). As nutrient medium RPMI 1640 medium, supplemented with 5 mM L-Gln 5 mL non-essential amino acids (100×) and 10% FCS, was used. Furthermore, a Dulbecco’s PBS solution with 0.1% EDTA (v/v) was applied to detach the cells for cell passaging. The detached cells were counted using a Neubauer hemocytometer ( Paul Marienfeld, Lauda-Königshofen, Germany). In addition, all operations under sterile conditions were accomplished using a MSC-Advantage safety workbench (Thermo Fisher Scientific Inc., Waltham, United States). […]
Internalisation Studies. For the determination of the internalisation kinetics of the various peptides, AR42J cells (3.0 × 10^5 cells/well) were seeded into polylysine coated 24-well plates adding 1 mL of nutrient medium. Afterwards, the cells were incubated for 24 ± 2 h at 37 °C in a humidified atmosphere […]
On the day of the experiment, the medium was removed, and each well was washed with nutrient medium (300 µL). Afterwards 200 µL of nutrient medium, 25 µL of the 177Lu-labeled peptide (0.3 pmol, n = 6) and either 25 µL of nutrient medium for internali sation studies (n = 3) or 25 µL of [natLu]Lu-DOTA-PP-F11N ([…]) for competition studies (n = 3) were added. Thereafter, the assay was incubated for various time points (1, 2, 4and 6 h) at 37 °C in a humidified atmosphere (5% CO2). After incubation, the cells were put on ice for at least 1 min to stop internalisation kinetics and the supernatant was collected. Then, the cells were washed with an ice-cold nutrient medium (300 µL) and both fractions were unified. For the acid wash, 300 µL of an ice-cold glycine buffer ([…] lysis of the cells with NaOH (300 μL, 1 N) for 15 min, the respective wells were washed with NaOH (300 μL, 1 N) and both fractions were unified. The radioactivity of the supernatant, the acid wash and the lysed fractions were quantified using a γ-counter.

[1] = Lipophilicity, n-octanol/PBS (pH 7.4) distribution coefficient; format: physicochemical
Method in brief: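 logD7.4 measured by shake-flask with ^177Lu-labelled peptide (approx. 1 MBq) in 1/1 n-octanol/PBS pH 7.4, vortexed 3 min at RT and centrifuged 5 min. Both phases counted by γ-counter; at least five repeats.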

[2] = 177Lu-labelled peptide, n-octanol/PBS pH 7.4, read-out: logD7.4

Row | logD ([1]; pH 7.4) | SMILES | Total cell uptake (%) (CCK-2R; 1 h) | Internalisation Values (%) (CCK-2R; 1 h) | Total cell uptake (%) (CCK-2R; 2 h) | Internalisation Values (%) (CCK-2R; 2 h) | Total cell uptake (%) (CCK-2R; 4 h) | Internalisation Values (%) (CCK-2R; 4 h) | Total cell uptake (%) (CCK-2R; 6 h) | Internalisation Values (%) (CCK-2R; 6 h) | Internalisation Values (% of reference) (CCK-2R; 6 h) | logD [1, 2]
1 |  | CCCC[C@H](NC(=O)[C@H](Cc1c[nH]c2ccccc12)NC(=O)CNC(=O)[C@H](Cc1ccc(O)cc1)NC(=O)[C@H](C)NC(=O)[C@@H](CCC(=O)O)NC(=O)[C@@H](CCC(=O)O)NC(=O)[C@@H](CCC(=O)O)NC(=O)[C@@H](CCC(=O)O)NC(=O)[C@@H](CCC(=O)O)NC(=O)[C@@H](CCC(=O)O)NC(=O)[C@@H](CCC(=O)O)NC(=O)[C@@H](CCC(=O)O)NC(=O)[C@@H](CNC(=O)c1ccc([Si](F)(C(C)(C)C)C(C)(C)C)cc1)NC(=O)CC[C@H](C(=O)O)N1CCN(CC(=O)O)CCN(CC(=O)O)CCN(CC(=O)O)CC1)C(=O)N[C@@H](CC(=O)O)C(=O)N[C@@H](Cc1ccccc1)C(N)=O [[nat/177Lu]Lu-(R)-DOTAGA-rhCCK-9, metal not drawn] (X1-[dDap](Benzoyl(4-SiFtBu2))[dE][dE][dE][dE][dE][dE][dE][dE]AYGW[Nle]DF-NH2) | 2.25 ± 0.23 | 2.08 ± 0.12 | 3.46 ± 0.56 | 3.44 ± 0.55 | 8.31 ± 0.59 | 8.01 ± 0.53 | 13.4 ± 0.7 | 13.2 ± 0.5 | 65.7 ± 2.5 % of reference | -2.84 ± 0.04
2 |  | CCCC[C@H](NC(=O)[C@H](Cc1c[nH]c2ccccc12)NC(=O)CNC(=O)[C@H](Cc1ccc(O)cc1)NC(=O)[C@H](C)NC(=O)CC[C@@H](NC(=O)CC[C@@H](NC(=O)CC[C@@H](NC(=O)CC[C@@H](NC(=O)CC[C@@H](NC(=O)CC[C@@H](NC(=O)[C@@H](CNC(=O)c1ccc([Si](F)(C(C)(C)C)C(C)(C)C)cc1)NC(=O)CC[C@H](C(=O)O)N1CCN(CC(=O)O)CCN(CC(=O)O)CCN(CC(=O)O)CC1)C(=O)O)C(=O)O)C(=O)O)C(=O)O)C(=O)O)C(=O)O)C(=O)N[C@@H](CC(=O)O)C(=O)N[C@@H](Cc1ccccc1)C(N)=O [[nat/177Lu]Lu-(R)-DOTAGA-rhCCK-16, metal not drawn] | 8.37 ± 0.07 | 7.63 ± 0.13 | 14.4 ± 1.3 | 14.0 ± 1.3 | 23.6 ± 2.8 | 23.2 ± 2.7 | 32.8 ± 2.3 | 32.2 ± 2.1 | 135 ± 9 % of reference | -2.54 ± 0.05
3 | -3.8 ± 0.1 | CSCC[C@H](NC(=O)[C@H](Cc1c[nH]c2ccccc12)NC(=O)CNC(=O)[C@H](Cc1ccc(O)cc1)NC(=O)[C@H](C)NC(=O)[C@@H](CCC(=O)O)NC(=O)[C@@H](CCC(=O)O)NC(=O)[C@@H](CCC(=O)O)NC(=O)[C@@H](CCC(=O)O)NC(=O)[C@@H](CCC(=O)O)NC(=O)[C@@H](CCC(=O)O)NC(=O)CN1CCN(CC(=O)O)CCN(CC(=O)O)CCN(CC(=O)O)CC1)C(=O)N[C@@H](CC(=O)O)C(=O)N[C@@H](Cc1ccccc1)C(N)=O [[nat/177Lu]Lu-CP04, metal not drawn, reference compound] | 6.00 ± 0.42 | 5.16 ± 0.44 | 10.0 ± 0.4 | 9.33 ± 0.36 | 16.5 ± 0.9 | 15.4 ± 0.7 |  | 20.5 ± 0.5 | 91.6 ± 2.4 % of reference | 
4 |  | CCCC[C@H](NC(=O)[C@H](Cc1c[nH]c2ccccc12)NC(=O)CNC(=O)[C@H](Cc1ccc(O)cc1)NC(=O)[C@H](C)NC(=O)[C@@H](CCC(=O)O)NC(=O)[C@@H](CCC(=O)O)NC(=O)[C@@H](CCC(=O)O)NC(=O)[C@@H](CCC(=O)O)NC(=O)[C@@H](CCC(=O)O)NC(=O)[C@@H](CCC(=O)O)NC(=O)CN1CCN(CC(=O)O)CCN(CC(=O)O)CCN(CC(=O)O)CC1)C(=O)N[C@@H](CC(=O)O)C(=O)N[C@@H](Cc1ccccc1)C(N)=O [[nat/177Lu]Lu-DOTA-PP-F11N, metal not drawn, reference compound] | 7.03 ± 1.45 | 6.44 ± 0.32 | 10.6 ± 1.5 | 10.1 ± 0.4 | 18.5 ± 2.5 | 17.5 ± 1.0 | 23.5 ± 1.4 | 22.4 ± 0.6 |  | -4.75 ± 0.07
